# Data published in ChEMBL document CHEMBL1201862, “PubChem BioAssay data set” (2004).
# Activity calls are given as the source filed them. How the calls were made is not given here.
# How the values were obtained:
# Format in all cases: functional
# [1] = biological target: Tyrosine-protein kinase JAK2 (Homo sapiens, UniProt O60674);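 further: JAK2 tested as one member of a kinase panel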
# [2] = biological target: T1, Serine/threonine-protein kinase D3 (Homo sapiens, UniProt O94806);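 further: determined within a kinase panel screen, with PRKCN as the panel member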
# T1 sequence (O94806 whole entry): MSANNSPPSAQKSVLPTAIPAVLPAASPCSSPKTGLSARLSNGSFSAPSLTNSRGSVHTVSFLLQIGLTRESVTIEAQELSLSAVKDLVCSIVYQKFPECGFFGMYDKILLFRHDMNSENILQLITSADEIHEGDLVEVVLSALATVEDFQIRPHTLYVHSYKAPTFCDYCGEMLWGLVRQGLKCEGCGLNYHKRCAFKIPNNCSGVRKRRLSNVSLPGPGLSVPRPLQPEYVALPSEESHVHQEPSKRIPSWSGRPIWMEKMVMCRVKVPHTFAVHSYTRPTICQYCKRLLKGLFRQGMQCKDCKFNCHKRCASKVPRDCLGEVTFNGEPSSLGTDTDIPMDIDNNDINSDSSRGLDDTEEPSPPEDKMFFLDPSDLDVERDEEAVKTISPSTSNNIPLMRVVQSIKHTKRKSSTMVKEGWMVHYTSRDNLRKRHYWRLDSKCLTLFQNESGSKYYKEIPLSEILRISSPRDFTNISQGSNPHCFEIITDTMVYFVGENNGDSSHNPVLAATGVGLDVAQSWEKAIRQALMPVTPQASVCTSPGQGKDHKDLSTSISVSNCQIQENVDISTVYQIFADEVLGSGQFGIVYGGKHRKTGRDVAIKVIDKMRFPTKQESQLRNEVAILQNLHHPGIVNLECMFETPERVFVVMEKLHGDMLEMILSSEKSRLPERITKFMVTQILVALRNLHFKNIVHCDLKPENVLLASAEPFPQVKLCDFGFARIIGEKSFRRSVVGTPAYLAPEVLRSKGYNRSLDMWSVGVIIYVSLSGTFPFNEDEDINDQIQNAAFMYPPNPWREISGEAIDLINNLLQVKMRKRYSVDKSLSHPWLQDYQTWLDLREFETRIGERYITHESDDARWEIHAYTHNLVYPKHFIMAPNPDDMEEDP
# [3] = biological target: Death-associated protein kinase 3 (Homo sapiens, UniProt O43293);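 further: measured as one member of a kinome-wide profiling panel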
# Death-associated protein kinase 3, sequence (O43293 whole entry): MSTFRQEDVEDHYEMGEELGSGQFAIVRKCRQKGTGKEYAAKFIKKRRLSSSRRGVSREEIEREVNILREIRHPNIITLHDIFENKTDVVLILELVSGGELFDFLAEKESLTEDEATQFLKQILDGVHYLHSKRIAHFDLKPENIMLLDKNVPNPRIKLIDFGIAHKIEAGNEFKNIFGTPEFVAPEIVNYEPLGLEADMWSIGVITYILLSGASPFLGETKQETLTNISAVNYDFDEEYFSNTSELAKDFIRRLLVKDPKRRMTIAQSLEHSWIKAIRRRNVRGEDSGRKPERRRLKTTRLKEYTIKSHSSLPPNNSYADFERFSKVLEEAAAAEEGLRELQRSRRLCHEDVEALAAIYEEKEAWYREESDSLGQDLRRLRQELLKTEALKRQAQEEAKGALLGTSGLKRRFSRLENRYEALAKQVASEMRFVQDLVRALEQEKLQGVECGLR
# Activin receptor type-1 = biological target: T2, Activin receptor type-1 (Homo sapiens, UniProt Q04771); experiment: Navigating the Kinome. Panel member name: ACVR1
# T2 sequence (Q04771 whole entry): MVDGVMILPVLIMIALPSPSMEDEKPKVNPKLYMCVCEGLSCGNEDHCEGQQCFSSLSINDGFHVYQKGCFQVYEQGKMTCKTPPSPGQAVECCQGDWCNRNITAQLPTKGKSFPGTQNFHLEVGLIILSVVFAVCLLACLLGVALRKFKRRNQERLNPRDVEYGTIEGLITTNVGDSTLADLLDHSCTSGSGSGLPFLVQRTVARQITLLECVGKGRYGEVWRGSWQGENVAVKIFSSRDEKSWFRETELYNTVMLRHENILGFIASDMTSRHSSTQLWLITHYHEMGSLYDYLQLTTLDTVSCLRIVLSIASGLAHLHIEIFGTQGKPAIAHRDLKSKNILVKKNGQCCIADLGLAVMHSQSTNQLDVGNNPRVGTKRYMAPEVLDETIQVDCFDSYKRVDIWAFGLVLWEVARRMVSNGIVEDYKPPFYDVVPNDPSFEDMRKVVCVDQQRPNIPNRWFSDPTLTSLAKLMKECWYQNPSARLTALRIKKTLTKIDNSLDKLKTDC
# [4] = biological target: Casein kinase I isoform alpha (Homo sapiens, UniProt P48729)
# Casein kinase I isoform alpha, sequence (P48729 whole entry, canonical isoform): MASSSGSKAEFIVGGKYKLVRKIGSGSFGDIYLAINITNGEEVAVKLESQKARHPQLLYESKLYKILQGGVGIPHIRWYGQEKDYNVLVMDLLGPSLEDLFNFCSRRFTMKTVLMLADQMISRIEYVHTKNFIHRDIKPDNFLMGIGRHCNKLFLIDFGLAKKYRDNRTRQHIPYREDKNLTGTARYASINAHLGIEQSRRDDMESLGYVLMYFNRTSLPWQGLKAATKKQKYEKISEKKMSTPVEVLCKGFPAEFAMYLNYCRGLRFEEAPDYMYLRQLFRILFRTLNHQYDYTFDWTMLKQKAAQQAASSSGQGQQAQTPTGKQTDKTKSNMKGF
# [5] = biological target: Mitogen-activated protein kinase 9 (Homo sapiens, UniProt P45984);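 further: value from a kinome panel profiling assay, MAPK9 panel entry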
# Mitogen-activated protein kinase 9, sequence (P45984 whole entry): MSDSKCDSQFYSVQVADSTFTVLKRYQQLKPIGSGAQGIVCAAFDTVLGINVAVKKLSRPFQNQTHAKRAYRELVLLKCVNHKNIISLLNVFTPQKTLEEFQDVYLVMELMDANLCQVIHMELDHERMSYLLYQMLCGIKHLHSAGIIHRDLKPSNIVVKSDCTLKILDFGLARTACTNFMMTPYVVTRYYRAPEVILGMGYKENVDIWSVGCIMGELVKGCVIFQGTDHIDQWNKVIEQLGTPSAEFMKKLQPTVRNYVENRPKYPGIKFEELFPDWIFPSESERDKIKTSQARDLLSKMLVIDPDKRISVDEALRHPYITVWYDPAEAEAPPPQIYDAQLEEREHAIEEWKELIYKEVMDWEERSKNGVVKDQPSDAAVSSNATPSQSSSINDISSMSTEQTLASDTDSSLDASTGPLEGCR
# [6] = biological target: Glycogen synthase kinase-3 alpha (Homo sapiens, UniProt P49840);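 further: GSK3A result taken from a broad kinome-wide kinase panel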
# Glycogen synthase kinase-3 alpha, sequence (P49840 whole entry): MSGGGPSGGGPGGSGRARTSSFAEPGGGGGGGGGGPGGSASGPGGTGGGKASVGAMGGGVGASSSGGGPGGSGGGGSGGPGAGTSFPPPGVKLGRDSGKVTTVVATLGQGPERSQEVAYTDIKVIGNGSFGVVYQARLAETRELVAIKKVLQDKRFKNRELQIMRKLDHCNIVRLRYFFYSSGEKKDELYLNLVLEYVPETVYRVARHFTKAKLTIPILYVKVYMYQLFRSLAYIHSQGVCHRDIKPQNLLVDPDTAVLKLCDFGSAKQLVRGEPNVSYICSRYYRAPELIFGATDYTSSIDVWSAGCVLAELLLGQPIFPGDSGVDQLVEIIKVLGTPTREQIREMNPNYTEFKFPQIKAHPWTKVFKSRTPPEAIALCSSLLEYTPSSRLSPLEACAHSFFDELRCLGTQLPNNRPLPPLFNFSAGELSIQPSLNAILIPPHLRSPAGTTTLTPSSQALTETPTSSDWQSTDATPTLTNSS
# [7] = biological target: T3, Mitogen-activated protein kinase kinase kinase kinase 2 (Homo sapiens, UniProt Q12851);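 further: measured as one member of a kinome-wide kinase panel, with MAP4K2 as the panel entry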
# T3 sequence (Q12851 whole entry): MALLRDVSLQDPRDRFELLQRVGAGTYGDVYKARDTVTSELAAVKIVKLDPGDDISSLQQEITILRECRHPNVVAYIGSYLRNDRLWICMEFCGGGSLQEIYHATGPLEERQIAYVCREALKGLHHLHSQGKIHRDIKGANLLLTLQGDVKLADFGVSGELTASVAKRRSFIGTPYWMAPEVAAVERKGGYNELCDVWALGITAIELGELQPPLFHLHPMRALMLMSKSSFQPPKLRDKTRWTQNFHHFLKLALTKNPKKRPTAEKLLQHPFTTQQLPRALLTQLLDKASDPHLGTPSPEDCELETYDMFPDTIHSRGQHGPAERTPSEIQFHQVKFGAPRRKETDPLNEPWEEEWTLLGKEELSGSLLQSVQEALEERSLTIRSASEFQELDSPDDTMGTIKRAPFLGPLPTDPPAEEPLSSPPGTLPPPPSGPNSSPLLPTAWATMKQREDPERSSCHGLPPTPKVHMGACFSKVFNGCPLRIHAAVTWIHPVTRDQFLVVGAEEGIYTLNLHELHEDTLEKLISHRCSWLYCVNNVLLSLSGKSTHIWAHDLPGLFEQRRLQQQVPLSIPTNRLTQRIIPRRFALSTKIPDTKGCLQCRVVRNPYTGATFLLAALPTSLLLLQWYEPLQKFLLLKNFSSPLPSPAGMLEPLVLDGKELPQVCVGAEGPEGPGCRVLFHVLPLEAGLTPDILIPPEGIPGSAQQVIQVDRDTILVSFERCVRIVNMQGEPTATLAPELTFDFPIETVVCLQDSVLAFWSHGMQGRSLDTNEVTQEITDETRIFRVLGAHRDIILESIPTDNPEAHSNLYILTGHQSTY
# [8] = biological target: G protein-coupled receptor kinase 5 (Homo sapiens, UniProt P34947); experiment: Navigating the Kinome. Panel member name: GPRK5
# Aurora kinase B = Aurora kinase B (Homo sapiens, UniProt Q96GD4)
# Aurora kinase B, sequence (Q96GD4 whole entry): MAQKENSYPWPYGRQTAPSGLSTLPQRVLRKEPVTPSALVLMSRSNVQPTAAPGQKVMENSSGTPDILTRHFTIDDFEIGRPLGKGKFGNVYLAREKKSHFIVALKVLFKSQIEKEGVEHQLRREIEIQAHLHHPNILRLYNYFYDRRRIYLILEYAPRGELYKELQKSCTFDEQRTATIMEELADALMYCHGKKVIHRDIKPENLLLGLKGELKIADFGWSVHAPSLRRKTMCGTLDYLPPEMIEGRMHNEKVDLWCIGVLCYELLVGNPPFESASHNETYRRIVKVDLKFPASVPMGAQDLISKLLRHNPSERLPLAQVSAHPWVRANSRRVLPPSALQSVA
# [9] = biological target: Rho-associated protein kinase 1 (Homo sapiens, UniProt Q13464);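 further: measured within a broad kinome-wide panel profiling many kinases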
# Rho-associated protein kinase 1, sequence (Q13464 whole entry): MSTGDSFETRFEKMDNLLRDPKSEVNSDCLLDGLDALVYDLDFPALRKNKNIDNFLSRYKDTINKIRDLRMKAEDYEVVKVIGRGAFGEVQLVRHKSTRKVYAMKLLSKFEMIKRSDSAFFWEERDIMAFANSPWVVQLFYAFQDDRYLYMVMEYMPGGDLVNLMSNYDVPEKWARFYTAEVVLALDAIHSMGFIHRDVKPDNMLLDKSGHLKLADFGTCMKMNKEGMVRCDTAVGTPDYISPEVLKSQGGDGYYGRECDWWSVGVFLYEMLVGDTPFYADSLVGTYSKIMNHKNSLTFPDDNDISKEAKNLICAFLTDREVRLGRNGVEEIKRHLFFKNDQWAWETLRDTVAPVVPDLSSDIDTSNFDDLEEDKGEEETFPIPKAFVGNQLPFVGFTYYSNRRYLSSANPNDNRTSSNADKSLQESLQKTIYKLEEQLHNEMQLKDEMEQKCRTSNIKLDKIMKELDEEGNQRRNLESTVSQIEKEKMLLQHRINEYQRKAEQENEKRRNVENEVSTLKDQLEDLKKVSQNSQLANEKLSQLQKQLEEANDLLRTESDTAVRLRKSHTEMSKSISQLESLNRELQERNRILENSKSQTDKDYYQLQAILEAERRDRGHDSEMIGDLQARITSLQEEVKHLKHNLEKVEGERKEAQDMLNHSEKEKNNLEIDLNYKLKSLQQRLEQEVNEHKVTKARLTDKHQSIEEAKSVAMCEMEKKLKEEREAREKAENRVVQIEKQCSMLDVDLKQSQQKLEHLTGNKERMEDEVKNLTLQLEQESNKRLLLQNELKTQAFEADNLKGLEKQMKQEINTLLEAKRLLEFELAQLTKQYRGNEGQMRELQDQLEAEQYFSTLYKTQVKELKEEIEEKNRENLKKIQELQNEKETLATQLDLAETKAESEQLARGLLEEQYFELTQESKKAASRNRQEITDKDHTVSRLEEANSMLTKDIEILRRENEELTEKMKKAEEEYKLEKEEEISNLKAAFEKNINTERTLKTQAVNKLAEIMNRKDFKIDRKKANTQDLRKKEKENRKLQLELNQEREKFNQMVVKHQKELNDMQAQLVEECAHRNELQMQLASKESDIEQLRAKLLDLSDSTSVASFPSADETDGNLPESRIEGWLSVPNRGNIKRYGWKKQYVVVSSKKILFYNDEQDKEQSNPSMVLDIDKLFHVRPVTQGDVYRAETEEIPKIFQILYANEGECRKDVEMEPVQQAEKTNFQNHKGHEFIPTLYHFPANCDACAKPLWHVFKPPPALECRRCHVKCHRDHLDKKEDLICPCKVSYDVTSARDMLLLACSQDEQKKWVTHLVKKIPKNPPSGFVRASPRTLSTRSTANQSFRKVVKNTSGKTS
# Tyrosine-protein kinase JAK2, sequence (O60674 whole entry): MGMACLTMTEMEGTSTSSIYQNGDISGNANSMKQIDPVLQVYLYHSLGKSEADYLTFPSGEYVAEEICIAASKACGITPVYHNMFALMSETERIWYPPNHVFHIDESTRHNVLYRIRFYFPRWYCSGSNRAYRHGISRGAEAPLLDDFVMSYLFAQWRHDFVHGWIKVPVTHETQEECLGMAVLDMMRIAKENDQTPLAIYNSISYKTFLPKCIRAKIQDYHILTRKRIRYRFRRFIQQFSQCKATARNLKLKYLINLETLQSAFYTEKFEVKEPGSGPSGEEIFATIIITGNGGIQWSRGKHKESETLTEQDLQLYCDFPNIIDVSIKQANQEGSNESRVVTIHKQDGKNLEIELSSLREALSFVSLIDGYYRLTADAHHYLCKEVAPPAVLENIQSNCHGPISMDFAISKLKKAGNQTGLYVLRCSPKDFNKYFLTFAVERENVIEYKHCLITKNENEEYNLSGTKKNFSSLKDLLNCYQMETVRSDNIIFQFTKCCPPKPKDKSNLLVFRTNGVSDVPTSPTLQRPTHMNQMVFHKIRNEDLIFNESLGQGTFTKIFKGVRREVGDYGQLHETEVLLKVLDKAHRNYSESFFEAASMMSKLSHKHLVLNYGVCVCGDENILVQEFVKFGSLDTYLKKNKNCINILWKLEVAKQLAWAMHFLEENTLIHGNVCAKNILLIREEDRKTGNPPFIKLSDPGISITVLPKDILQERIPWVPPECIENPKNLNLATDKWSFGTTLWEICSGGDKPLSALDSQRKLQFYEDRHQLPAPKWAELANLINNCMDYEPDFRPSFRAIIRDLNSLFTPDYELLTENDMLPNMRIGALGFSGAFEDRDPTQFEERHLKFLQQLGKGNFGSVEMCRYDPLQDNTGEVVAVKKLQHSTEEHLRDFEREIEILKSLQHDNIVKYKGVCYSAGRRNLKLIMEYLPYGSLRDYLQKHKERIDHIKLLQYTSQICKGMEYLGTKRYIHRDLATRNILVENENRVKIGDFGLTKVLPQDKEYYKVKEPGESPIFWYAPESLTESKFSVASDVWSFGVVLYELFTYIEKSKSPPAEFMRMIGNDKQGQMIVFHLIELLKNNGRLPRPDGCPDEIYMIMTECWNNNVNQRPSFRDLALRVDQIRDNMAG
Ki [1],Ki [2],Ki (Activin receptor type-1),Ki [4],Ki [5],Ki [6],Ki [7],Ki [8],Ki (Aurora kinase B),Ki [9],SMILES,Ki [3],further results
> 2510 nM (inactive),> 3980 nM (inactive),> 3980 nM (inactive),> 3980 nM (inactive),> 3980 nM (inactive),> 3980 nM (inactive),> 2510 nM (inactive),3980 nM (active),> 3980 nM (inactive),25.1 nM (active),COc1cccc(CNC(=O)c2cnc(-c3ccncc3)nc2)c1,> 5010 nM (inactive),
200 nM (active),15.8 nM (active),1260 nM (active),63.1 nM (active),251 nM (active),63.1 nM (active),39.8 nM (active),1580 nM (active),501 nM (active),7.94 nM (active),OC1CCC(Nc2nc(Cl)cc(-c3c[nH]c4ncccc34)n2)CC1 (stereo not drawn),79.4 nM (active),pKi [1]: 6.7; pKi [2]: 7.8; pKi [3]: 7.1; pKi (Activin receptor type-1): 5.9; pKi [4]: 7.2; pKi [5]: 6.6; pKi [6]: 7.2; pKi [7]: 7.4; pKi [8]: 5.8; pKi (Aurora kinase B): 6.3; pKi [9]: 8.1
